Measurements taken from patent publication US11339130B1 (Blade Therapeutics, Inc., priority 2016, dated 2022).

What was measured:
Assay type in all cases: biochemical
Human Calpain 1/NS1 = target: T1, Human Calpain 1/NS1 (Homo sapiens, UniProt P07384); test: Calpain inhibition continuous fluorescence (FRET) assay, Human Calpain 1/NS1; settings: Column A; read-out: Human Calpain 1/NS1 IC50
T1 sequence (P07384 1-714): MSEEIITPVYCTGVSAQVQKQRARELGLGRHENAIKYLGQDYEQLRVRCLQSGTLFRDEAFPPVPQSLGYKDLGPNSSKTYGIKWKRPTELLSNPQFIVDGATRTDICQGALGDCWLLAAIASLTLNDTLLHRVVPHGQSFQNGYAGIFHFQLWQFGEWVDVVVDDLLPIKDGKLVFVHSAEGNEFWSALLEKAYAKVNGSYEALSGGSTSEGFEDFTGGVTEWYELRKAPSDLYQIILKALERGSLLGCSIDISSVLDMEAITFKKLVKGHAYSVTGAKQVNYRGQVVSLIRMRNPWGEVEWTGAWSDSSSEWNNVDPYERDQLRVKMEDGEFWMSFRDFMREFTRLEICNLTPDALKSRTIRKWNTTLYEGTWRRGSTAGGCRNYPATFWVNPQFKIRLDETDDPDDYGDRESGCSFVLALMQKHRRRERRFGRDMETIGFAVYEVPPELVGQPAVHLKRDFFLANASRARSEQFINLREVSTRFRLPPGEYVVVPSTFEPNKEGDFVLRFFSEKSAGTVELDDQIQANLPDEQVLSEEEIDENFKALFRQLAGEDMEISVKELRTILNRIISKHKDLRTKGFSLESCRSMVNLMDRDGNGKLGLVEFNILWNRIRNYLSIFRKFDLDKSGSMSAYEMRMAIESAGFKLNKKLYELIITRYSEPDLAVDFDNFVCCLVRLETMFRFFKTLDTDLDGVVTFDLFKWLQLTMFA
T1 sequence (P04632 1-268 partner): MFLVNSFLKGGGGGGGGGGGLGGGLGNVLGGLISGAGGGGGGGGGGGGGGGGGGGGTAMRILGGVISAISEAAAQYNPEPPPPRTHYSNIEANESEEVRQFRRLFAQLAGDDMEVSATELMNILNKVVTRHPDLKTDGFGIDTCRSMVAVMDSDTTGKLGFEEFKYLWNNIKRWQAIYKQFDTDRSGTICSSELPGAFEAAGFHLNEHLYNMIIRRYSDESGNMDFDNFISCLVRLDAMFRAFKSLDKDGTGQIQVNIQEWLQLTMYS
Procedure, shortened: (§1)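 Inhibitors were preincubated with calpain in 50 mM Tris pH 7.5, 100 mM NaCl, 1 mM DTT at 25C. Reactions were started with 5-FAM/QXL 520 FRET peptide substrate plus CaCl2 and read at 490/520 nm for 10 min. IC50s came from 4-parameter fits of slope rates (1-5 min).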

Human Calpain 2/NS1 = target: T2, Human Calpain 2/NS1 (Homo sapiens, UniProt P17655); test: Calpain inhibition continuous fluorescence (FRET) assay, Human Calpain 2/NS1; settings: Column B; read-out: Human Calpain 2/NS1 IC50
T2 sequence (P17655 1-700): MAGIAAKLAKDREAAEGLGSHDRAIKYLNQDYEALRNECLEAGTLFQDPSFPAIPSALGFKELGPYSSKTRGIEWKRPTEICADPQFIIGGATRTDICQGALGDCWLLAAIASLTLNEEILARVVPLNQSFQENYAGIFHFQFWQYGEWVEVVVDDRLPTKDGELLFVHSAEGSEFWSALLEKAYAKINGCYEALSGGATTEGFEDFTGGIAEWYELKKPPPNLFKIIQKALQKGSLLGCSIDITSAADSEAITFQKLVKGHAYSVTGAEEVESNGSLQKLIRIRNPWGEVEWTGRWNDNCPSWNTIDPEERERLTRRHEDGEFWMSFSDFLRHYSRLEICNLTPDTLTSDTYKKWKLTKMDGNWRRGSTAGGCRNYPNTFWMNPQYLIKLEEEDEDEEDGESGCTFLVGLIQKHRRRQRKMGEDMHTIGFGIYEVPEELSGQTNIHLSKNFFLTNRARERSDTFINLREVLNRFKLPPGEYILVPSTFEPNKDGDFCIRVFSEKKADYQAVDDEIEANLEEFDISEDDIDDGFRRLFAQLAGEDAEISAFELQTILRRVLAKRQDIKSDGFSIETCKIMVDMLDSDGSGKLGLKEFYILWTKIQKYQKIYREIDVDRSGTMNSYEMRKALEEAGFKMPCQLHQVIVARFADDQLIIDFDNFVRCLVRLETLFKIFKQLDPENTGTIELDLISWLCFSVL
T2 sequence (P04632 1-268 partner): T1 sequence (P04632 1-268 partner)
Procedure, shortened: as §1

Human Calpain 9/NS1 = target: T3, Human Calpain 9/NS1 (Homo sapiens, UniProt O14815); test: Calpain inhibition continuous fluorescence (FRET) assay, Human Calpain 9/NS1; settings: Column C; read-out: Human Calpain 9/NS1 IC50
T3 sequence (O14815 1-690): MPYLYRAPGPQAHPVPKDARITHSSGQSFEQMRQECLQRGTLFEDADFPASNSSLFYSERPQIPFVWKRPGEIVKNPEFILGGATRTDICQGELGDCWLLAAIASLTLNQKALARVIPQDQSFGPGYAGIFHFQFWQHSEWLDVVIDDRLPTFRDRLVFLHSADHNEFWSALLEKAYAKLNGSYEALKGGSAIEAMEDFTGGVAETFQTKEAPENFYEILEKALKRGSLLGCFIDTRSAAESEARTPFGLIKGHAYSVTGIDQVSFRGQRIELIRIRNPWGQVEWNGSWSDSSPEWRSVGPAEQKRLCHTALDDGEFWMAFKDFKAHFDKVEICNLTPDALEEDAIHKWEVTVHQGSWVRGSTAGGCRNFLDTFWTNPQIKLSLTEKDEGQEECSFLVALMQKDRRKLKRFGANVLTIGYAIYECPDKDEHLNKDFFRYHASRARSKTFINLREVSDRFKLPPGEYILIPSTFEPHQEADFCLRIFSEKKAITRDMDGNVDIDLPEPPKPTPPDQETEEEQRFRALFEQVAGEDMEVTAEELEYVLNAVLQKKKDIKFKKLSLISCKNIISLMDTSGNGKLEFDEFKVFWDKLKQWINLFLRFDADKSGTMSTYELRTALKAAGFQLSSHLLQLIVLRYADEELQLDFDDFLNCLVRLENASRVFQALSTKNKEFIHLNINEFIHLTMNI
T3 sequence (P04632 1-268 partner): T1 sequence (P04632 1-268 partner)
Procedure, shortened: as §1

Structure (SMILES)	IC50 (Human Calpain 1/NS1)	IC50 (Human Calpain 2/NS1)	IC50 (Human Calpain 9/NS1)
Cc1nsc(-c2ccccc2)c1C(=O)N[C@@H](Cc1ccccc1)C(=O)C(=O)NC1CC1 [Compound 116, (S)—N-(4-(cyclopropylamino)-3,4-dioxo-1-phenylbutan-2-yl)-3-methyl-5-phenylisothiazole-4-carboxamide]	< 3 µM	3 to 10 µM	> 10 µM
Cc1cc(C(=O)N[C@@H](Cc2ccccc2)C(=O)C(=O)NC2CC2)n(-c2ccc(C(F)(F)F)cn2)n1 [Compound 122, (S)—N-(4-(cyclopropylamino)-3,4-dioxo-1-phenylbutan-2-yl)-3-methyl-1-(5-(trifluoromethyl)pyridin-2-yl)-1H-pyrazole-5-carboxamide]	< 3 µM	< 3 µM	< 3 µM
CC(C)(C)c1cc(C(=O)N[C@@H](Cc2ccccc2)C(=O)C(N)=O)n(-c2ccccc2)n1 [Compound 128, (S)—N-(4-amino-3,4-dioxo-1-phenylbutan-2-yl)-3-(tert-butyl)-1-phenyl-1H-pyrazole-5-carboxamide]	3 to 10 µM	> 10 µM	3 to 10 µM
Cc1cc(C(=O)N[C@@H](Cc2ccccc2)C(=O)C(=O)NC2CC2)n(-c2cccnc2)n1 [Compound 132, (S)—N-(4-(cyclopropylamino)-3,4-dioxo-1-phenylbutan-2-yl)-3-methyl-1-(pyridin-3-yl)-1H-pyrazole-5-carboxamide]	< 3 µM	< 3 µM	< 3 µM
Cc1cc(C(=O)N[C@@H](Cc2ccccc2)C(=O)C(N)=O)n(-c2cncc3ccccc23)n1 [Compound 133, (S)—N-(4-amino-3,4-dioxo-1-phenylbutan-2-yl)-1-(isoquinolin-4-yl)-3-methyl-1H-pyrazole-5-carboxamide]	< 3 µM	< 3 µM	< 3 µM
O=C(NC1CC1)C(=O)[C@H](Cc1ccccc1)NC(=O)c1sc(C2CC2)nc1-c1ccccc1 [Compound 135, (S)-2-cyclopropyl-N-(4-(cyclopropylamino)-3,4-dioxo-1-phenylbutan-2-yl)-4-phenylthiazole-5-carboxamide]	< 3 µM	< 3 µM	> 10 µM
Cc1cc(C(=O)N[C@@H](Cc2ccccc2)C(=O)C(N)=O)n(-c2cncnc2)n1 [Compound 138, (S)—N-(4-amino-3,4-dioxo-1-phenylbutan-2-yl)-3-methyl-1-(pyrimidin-5-yl)-1H-pyrazole-5-carboxamide]	< 3 µM	< 3 µM	< 3 µM
Cc1noc(-n2cc3ccccc3n2)c1C(=O)N[C@@H](Cc1ccccc1)C(=O)C(N)=O [Compound 139, (S)—N-(4-amino-3,4-dioxo-1-phenylbutan-2-yl)-5-(2H-indazol-2-yl)-3-methylisoxazole-4-carboxamide]	< 3 µM	< 3 µM	< 3 µM

The next lines start with the values.

IC50 (Human Calpain 1/NS1)	IC50 (Human Calpain 2/NS1)	IC50 (Human Calpain 9/NS1)	Structure (SMILES)
3 to 10 µM	3 to 10 µM	3 to 10 µM	CC(C)c1cc(C(=O)N[C@@H](Cc2ccccc2)C(=O)C(N)=O)n(-c2ccccc2)n1 [Compound 117, (S)—N-(4-amino-3,4-dioxo-1-phenylbutan-2-yl)-3-isopropyl-1-phenyl-1H-pyrazole-5-carboxamide]
< 3 µM	< 3 µM	< 3 µM	Cc1cc(C(=O)N[C@@H](Cc2ccccc2)C(=O)C(N)=O)n(-c2nccc3ccccc23)n1 [Compound 119, (S)—N-(4-amino-3,4-dioxo-1-phenylbutan-2-yl)-1-(isoquinolin-1-yl)-3-methyl-1H-pyrazole-5-carboxamide]
< 3 µM	< 3 µM	< 3 µM	Cc1cc(C)nc(-n2nc(C)cc2C(=O)N[C@@H](Cc2ccccc2)C(=O)C(N)=O)c1 [Compound 123, (S)—N-(4-amino-3,4-dioxo-1-phenylbutan-2-yl)-1-(4,6-dimethylpyridin-2-yl)-3-methyl-1H-pyrazole-5-carboxamide]
< 3 µM	< 3 µM	< 3 µM	Cc1nc(-c2ccccc2)c(C(=O)N[C@@H](Cc2ccccc2)C(=O)C(=O)NC2CC2)s1 [Compound 124, (S)—N-(4-(cyclopropylamino)-3,4-dioxo-1-phenylbutan-2-yl)-2-methyl-4-phenylthiazole-5-carboxamide]
> 10 µM	> 10 µM	> 10 µM	Cc1cc(C(=O)N[C@@H](Cc2ccccc2)C(=O)C(=O)NC2CC2)nn1-c1nc(-c2ccccc2)cs1 [Compound 125, (S)—N-(4-(cyclopropylamino)-3,4-dioxo-1-phenylbutan-2-yl)-5-methyl-1-(4-phenylthiazol-2-yl)-1H-pyrazole-3-carboxamide]
< 3 µM	< 3 µM	< 3 µM	Cc1cc(C(=O)N[C@@H](Cc2ccccc2)C(=O)C(=O)NC2CC2)n(-c2cncnc2)n1 [Compound 127]
3 to 10 µM	> 10 µM	3 to 10 µM	NC(=O)C(=O)[C@H](Cc1ccccc1)NC(=O)c1[nH]ncc1-c1ccccc1 [Compound 129, (S)—N-(4-amino-3,4-dioxo-1-phenylbutan-2-yl)-4-phenyl-1H-pyrazole-5-carboxamide]
3 to 10 µM	3 to 10 µM	3 to 10 µM	Cc1cc(C(=O)N[C@@H](Cc2ccccc2)C(=O)C(=O)NC2CC2)n(-c2cncc3ccccc23)n1 [Compound 134, (S)—N-(4-(cyclopropylamino)-3,4-dioxo-1-phenylbutan-2-yl)-1-(isoquinolin-4-yl)-3-methyl-1H-pyrazole-5-carboxamide]
> 10 µM	> 10 µM	> 10 µM	CC(C)(C)c1cc(C(=O)N[C@@H](Cc2ccccc2)C(=O)C(=O)NC2CC2)n(-c2ccccc2)n1 [Compound 137, (S)-3-(tert-butyl)-N-(4-(cyclopropylamino)-3,4-dioxo-1-phenylbutan-2-yl)-1-phenyl-1H-pyrazole-5-carboxamide]
< 3 µM	< 3 µM	< 3 µM	NC(=O)C(=O)[C@H](Cc1ccccc1)NC(=O)c1ncoc1-c1ccccc1 [Compound 148, (S)—N-(4-amino-3,4-dioxo-1-phenylbutan-2-yl)-5-phenyloxazole-4-carboxamide]
